The subject of experiment [1] is Huh7 cells. The experiment is described as follows: Cell proliferation, Huh7. To be noted: peptide 25 µM 1 h, IGF1 100 ng/mL 72 h, automated cell counting, n = 3. The class given is cell-based, human.
Experiment [2] has as its system Huh7 cells. The experiment is described as follows: Triglyceride (TG) detection assay, Huh7. The class given is cell-based, human. To be noted: peptide 25 µM, IGF1 100 ng/mL 24 h, n = 3. As to the method:
Figure 1 The Insig1/2 loop 1 peptide binds to S90‐phosphorylated PCK1 and blocks PCK1‐mediated SREBP activation and tumor cell proliferation. Immunoblotting analyses were performed using the indicated antibodies; representative results from three independent experiments are shown (IP, immunoprecipitation; WB, western blot). a) Huh7 cells expressing various Insig1 (top) or Insig2 (bottom) truncation mutants were treated with or without IGF1 (100 ng mL^−1) for 1 h. b,c) Biolayer interferometry assays (Sartorius Octet) were employed to measure the binding affinity of Insig1/2 loop 1 peptide to GST‐PCK1 or GST‐PCK1 pS90 proteins. […] Statistical significance was determined by one‐way analysis of variance (ANOVA). g) Following pretreatment with Insig1/2 loop 1 peptide (15 µM) and IGF1 stimulation (100 ng mL^−1, 8 h), Huh7 cells were subjected to immunofluorescence analysis (scale bar: 10 µm). h) Quantitative PCR analysis of SREBP1 target gene GPAM in Huh7 cells pretreated with Insig1/2 loop 1 peptide (15 µM) and stimulated with IGF1 (100 ng mL^−1) for 10 h. […] Statistical significance was determined by one‐way analysis of variance (ANOVA). i) Quantitative PCR analysis of SREBP1 target gene FASN in Huh7 cells pretreated with Insig1/2 loop 1 peptide (15 µM) and stimulated with IGF1 (100 ng mL^−1) for 10 h. […]

For experiment [3], the system named is HCT116 human colon cancer cells. The experiment is described as follows: Cell proliferation / cell death, HCT116. The class given is cell-based. The following applies: concentration gradient of peptide, OD measurement (Figure S1i). As to the method: Cells were seeded in 96‐well plates at a density of 5000 cells per well in 100 µL complete growth medium. Following a 24‐hour incubation period (37 °C, 5% CO2) to permit cell adherence, the culture medium was replaced with fresh low serum contained complete medium containing either Insig1/2 loop1 peptide (0–100 µM concentration range) or PBS. Cells were maintained under these conditions for 72 hours. After treatment, the culture medium was carefully aspirated, and cells were washed twice with 200 µL phosphate‐buffered saline (PBS, pH 7.4). Fixed was performed using 4% paraformaldehyde (100 µL/well) for 15 min at room temperature, followed by three PBS washes (200 µL/well) to remove residual fixative. 0.1% (w/v) crystal violet staining solution was prepared by dissolving crystal violet powder in 10% ethanol, followed by filtration through a 0.22 µm membrane. Each well received 80 µL of staining solution and was incubated for 15 min at room temperature, protected from light. […] Plates were agitated at 200 rpm for 10 min to ensure complete dissolution before measuring absorbance at 582 nm using a microplate reader. […]
i-k) (i) HCT116, (j) Huh7, and (k) Hep3B cells were exposed to a concentration gradient of Insig1/2 loop1 peptide, and cell proliferation was quantified by optical density (OD) measurements.

As for “RKKRRQRRRLYPCIDSHLGEPHKFKRE [Insig1/2 loop 1 peptide]”, the “IGF1-induced increase in proliferation” value with Huh7 cells [1] is “inhibited”. Moreover, in the experiment on Huh7 cells [2], the “IGF1-induced increase in triglycerides (TGs)” value is “reduced”. Further, the cell death result in experiment [3] is “induced cell death”.

Source of the values: publication PMC12677653, “Inhibition of Tumor Lipogenesis and Growth by Peptide‐Based Targeting of SREBP Activation” (Advanced Science, 2025).
